Where two headings read alike, the source gives them in different places.
Key:
[1] = target: T1, Cyclin Dependent Kinase 1/Cyclin A2 (CDK1-cycA2) (Homo sapiens, UniProt P06493); test: CDK1-cycA2 TR-FRET (Lance) enzyme assay; format: biochemical; conditions: Table O, enzymatic assay
T1 construct: purchased ProQinase 0134-0054-1
Outline: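 TR-FRET (Lance) detection of phospho-4E-BP1 with a europium-labelled antibody after EDTA quench (15 mM final); signal taken as acceptor/donor ratio. Enzyme and compound were pre-incubated 30 min in HEPES pH 7.5 buffer with MgCl2, TCEP, BGG and Brij 35. Ki derived by Morrison fit.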

[2] = target: T2, Cyclin Dependent Kinase 2/Cyclin E1 (CDK2-cycE1) (Homo sapiens, UniProt P24941); test: CDK2-cycE1 TR-FRET (LANCE) enzyme assay; format: biochemical; conditions: for FS CDK1/CDK2 / FS CDK4/CDK2: fold selectivity; for FS CDK1/CDK2: enzymatic CDK1 Ki over CDK2 Ki; for FS CDK4/CDK2: enzymatic CDK4 Ki over CDK2 Ki
T2 construct: purchased ProQinase 0050-0055-1
Outline: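 Kinase reaction buffer: 50 mM HEPES pH 7.5, 10 mM MgCl2, 2 mM TCEP, 0.05% BGG, 0.01% Brij 35, with 30 min compound–enzyme pre-incubation.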

[3] = target: T3, Cyclin Dependent Kinase 4/Cyclin D3 (CDK4-cycD3) (Homo sapiens, UniProt P11802); test: CDK4-cycD3 TR-FRET (LANCE) enzyme assay; format: biochemical; conditions: Table O, enzymatic assay
T3 construct: purchased Carna Biosciences 04-105
Outline: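 Compound dose responses pre-incubated 30 min with enzyme mix in 50 mM HEPES pH 7.5, 10 mM MgCl2, 2 mM TCEP, 0.05% BGG, 0.01% Brij 35. Reaction quenched with EDTA (15 mM final); Eu-anti-phospho-4E-BP1 TR-FRET detection, acceptor/donor ratio. Ki derived by Morrison equation.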

[4] = system: OVISE (JCRB1043, CCNE1-amplified); test: OVISE EdU incorporation cell proliferation assay (CDK2-dependent); format: cell-based; conditions: Table O; for IC50: cellular assay, read-out: CDK2 OVISE IC50; for FS SKOV-3/OVISE / FS p-H3/OVISE: fold selectivity; for FS SKOV-3/OVISE: cellular SKOV-3 IC50 over OVISE IC50; for FS p-H3/OVISE: cellular p-H3 IC50 over OVISE IC50
Outline: (§1)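 EdU incorporation (0.5 μM final, last 8 h) follows a 16 h compound exposure at 37 °C, 5% CO2 in RPMI plus 10% FBS, 0.5% DMSO. After fixation, imaging scores EdU-positive cells; a 4-parameter logistic fit of that fraction gives IC50.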

[5] = system: SKOV-3 (ATCC HTB-77); test: SKOV-3 EdU incorporation cell proliferation assay (CDK4/6-dependent); format: cell-based; conditions: Homo sapiens, SK-OV-3, Table O, cellular assay; read-out: CDK4/6 SKOV-3 IC50
Outline: as §1

[6] = system: HCT116 cells; test: p-H3 HCT-116 mitotic release cell proliferation assay (cellular CDK1); format: cell-based; conditions: Homo sapiens, HCT-116; Table O, cellular assay; read-out: CDK1 p-H3 IC50
Outline: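 Phospho-Histone H3 (Ser10) in lysates was quantified by a two-antibody HTRF FRET read (≥2 h, room temperature). Before this, HCT116 cells held in mitosis by 16 h of 500 nM nocodazole were treated with compound for 4 h at 37 °C, 0.1% DMSO.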

[7] = Table O, enzymatic assay, read-out: CDK2 Ki

T1 sequence (P06493 whole entry): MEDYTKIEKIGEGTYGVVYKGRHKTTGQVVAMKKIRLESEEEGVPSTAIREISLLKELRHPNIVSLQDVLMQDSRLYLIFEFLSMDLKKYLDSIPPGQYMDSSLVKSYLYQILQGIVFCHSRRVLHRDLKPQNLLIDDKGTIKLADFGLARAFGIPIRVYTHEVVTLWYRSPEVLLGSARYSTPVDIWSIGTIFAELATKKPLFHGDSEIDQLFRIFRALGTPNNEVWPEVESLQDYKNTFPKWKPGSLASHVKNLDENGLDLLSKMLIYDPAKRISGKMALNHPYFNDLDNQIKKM
T1 sequence (P20248 whole entry partner): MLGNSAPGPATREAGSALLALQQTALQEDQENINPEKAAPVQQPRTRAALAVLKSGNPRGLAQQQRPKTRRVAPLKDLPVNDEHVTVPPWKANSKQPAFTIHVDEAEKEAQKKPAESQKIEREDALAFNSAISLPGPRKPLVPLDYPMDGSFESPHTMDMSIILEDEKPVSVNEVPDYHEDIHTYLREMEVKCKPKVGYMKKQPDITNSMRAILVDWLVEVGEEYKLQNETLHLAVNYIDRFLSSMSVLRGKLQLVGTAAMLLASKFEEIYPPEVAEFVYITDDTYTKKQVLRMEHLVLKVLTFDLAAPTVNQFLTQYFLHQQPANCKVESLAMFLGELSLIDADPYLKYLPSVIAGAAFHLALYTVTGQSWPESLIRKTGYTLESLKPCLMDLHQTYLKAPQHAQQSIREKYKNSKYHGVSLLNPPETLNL
T3 sequence (P11802 whole entry): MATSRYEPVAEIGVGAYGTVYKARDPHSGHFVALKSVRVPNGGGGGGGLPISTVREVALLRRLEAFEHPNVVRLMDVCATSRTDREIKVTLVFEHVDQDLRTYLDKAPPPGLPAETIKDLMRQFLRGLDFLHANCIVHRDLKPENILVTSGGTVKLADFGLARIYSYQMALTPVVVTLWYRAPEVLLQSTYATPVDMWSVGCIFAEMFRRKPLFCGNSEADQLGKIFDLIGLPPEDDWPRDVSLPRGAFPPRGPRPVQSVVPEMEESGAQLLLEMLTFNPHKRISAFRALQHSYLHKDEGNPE
T3 sequence (P30281 whole entry partner): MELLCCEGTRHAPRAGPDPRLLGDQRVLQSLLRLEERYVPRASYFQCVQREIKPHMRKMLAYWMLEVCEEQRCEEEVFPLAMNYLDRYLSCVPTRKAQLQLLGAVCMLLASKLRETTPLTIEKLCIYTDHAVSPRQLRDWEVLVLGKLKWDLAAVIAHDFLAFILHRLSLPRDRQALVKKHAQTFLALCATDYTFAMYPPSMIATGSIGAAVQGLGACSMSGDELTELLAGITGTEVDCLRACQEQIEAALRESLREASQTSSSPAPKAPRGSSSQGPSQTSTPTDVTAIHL

Ki [1]	Ki [2, 7]	FS CDK1/CDK2 ([2]; Table O)	FS CDK4/CDK2 ([2]; Table O)	Ki [3]	IC50 [5]	IC50 [6]	Ki ([2]; read-out: CDK2 activity / potency (enzymatic assay))	SMILES	IC50 [4]	FS SKOV-3/OVISE [4]	FS p-H3/OVISE [4]
95 nM	2.9 nM	33	162	470 nM	16000 nM	310 nM	–	Cc1nc(S(C)(=O)=O)ccc1Nc1cc([C@H]2CC[C@@H](OC(=O)NC(C)(C)C)C2)[nH]n1 [Example 4L, (1R,3S)-3-(3-((2-methyl-6-(methylsulfonyl)pyridin-3-yl)amino)-1H-pyrazol-5-yl)cyclopentyl tert-butylcarbamate]	310 nM	52	1
9.4 nM	0.3 nM	31	433	130 nM	5300 nM	150 nM	–	Cn1nc(Nc2cc([C@H]3CC[C@@H](OC(=O)NC(C)(C)C(F)F)C3)[nH]n2)ccc1=O [Example 5C, (1R,3S)-3-(3-((1-methyl-6-oxo-1,6-dihydropyridazin-3-yl)amino)-1H-pyrazol-5-yl)cyclopentyl (1,1-difluoro-2-methylpropan-2-yl)carbamate]	63 nM	84	2.4
21 nM	< 0.1 nM	>33	>320	20 nM	1300 nM	23 nM	≤ 1 nM	Cn1nc(Nc2cc([C@H]3CC[C@@H](OC(=O)NC45CC(C4)C5)C3)[nH]n2)ccc1=O [Example 6, (1R,3S)-3-(5-((1-methyl-6-oxo-1,6-dihydropyridazin-3-yl)amino)-1H-pyrazol-3-yl)cyclopentyl bicyclo[1.1.1]pentan-1-ylcarbamate]	16 nM	81	1.4
0.78 nM	< 0.1 nM	>12	>120	7.4 nM	390 nM	8.7 nM	–	CN(C(=O)O[C@@H]1CC[C@H](c2cc(Nc3ccc(=O)n(C)n3)n[nH]2)C1)C(C)(C)C [Example 6B, (1R,3S)-3-(3-((1-methyl-6-oxo-1,6-dihydropyridazin-3-yl)amino)-1H-pyrazol-5-yl)cyclopentyl tert-butyl(methyl)carbamate]	27 nM	14	0.32
